Results reported in patent US9856304B2, “Peptide and application thereof” (Saitama Medical University, priority 2013, dated 2018).

What was measured:
[1] = test system: human iPS cells (200-9 cells, TIG3/KOSM cells, 253G1 cells); experiment: Differentiation induction of human iPS cells into pancreatic hormone-producing cells (1), immunostaining; format: cell-based; conditions: 3 nM betagenin in step (D2), vs DMSO control, FIG. 3
Text: (§1) As human iPS cells, used were 253G1 cells purchased from the cell bank at RIKEN, TIG3/KOSM cells provided by Dr. Mitani at Saitama Medical University, 200-9 cells, a clone in which a reporter gene is introduced into TIG3/KOSM cells. TIG3/KOSM cells were established at The National Institute of Advanced Industrial Science and Technology by introducing 4 factors (the OCT gene, the KLF gene, the SOX gene, the MYC gene) into TIG-3 cells using Sendai virus (Nishimura, K. et al., J. Biol. Chem., 286, pp. 4760-4771 (2011)).
These cells were cultured/maintained in an ES cell culture medium (DMEM/ham F12, 20% KSR, nonessential amino acid, 2 mM L-glutamine, 0.1 mM 2-mercaptoethanol, 5.2 mM NaOH) with added 4 ng/mL FGF-2 (Global Stem) and penicillin/streptomycin (Nacalai Tesque, Inc.) along with SNL76/7 cells (DS Pharma Biomedical) treated with mitomycin-C. CTK (0.25% trypsin, 1 mg/mL collagenase IV, 20% KSR, 1 mM CaCl2 in PBS) was used for cell detachment, and diluted at a ratio of 1:3 to 1:4 to perform passage culture.
Cells were detached with trypsin-EDTA 3 days before the start of differentiation induction, and plated at a cell density of 6.3×10^4 cells/cm2, and cultured for 1 day in an ES cell culture medium with added 10 μM Y-27632 (Wako), 4 ng/mL FGF-2 and penicillin/streptomycin along with STO cells treated with mitomycin-C. Subsequently, they were further cultured for 2 days in an ES cell culture medium with added 4 ng/mL FGF-2 and penicillin/streptomycin.
On the first day of the start of differentiation induction, the culture medium was replaced with a RPMI1640 culture medium (Nacalai Tesque, Inc.) with added 2% (v/v) FBS, 100 ng/mL activin A (SBI) and 3 μM CHIR99021 (Axon Medchem), and cultured for 1 day (Step (A2)).
Subsequently, the culture medium was replaced with a RPMI1640 culture medium with added 2% (v/v) FBS and 100 ng/mL activin A, and cultured for 2 days (Step (B2)). […]
Then, the proportion (%) of C-peptide positive cells or insulin positive cells was determined using an image analyzer CellInsight (Thermo Fisher Scientific).

[2] = test system: human iPS cells (253G1 cells); experiment: Differentiation induction of human iPS cells into pancreatic hormone-producing cells (1), quantitative RT-PCR; format: cell-based; conditions: 3 nM betagenin in step (D2), 11 days, vs DMSO control, Day 10 cells taken as 1, FIG. 2
Text: as §1
These cells were cultured/maintained in an ES cell culture medium (DMEM/ham F12, 20% KSR, nonessential amino acid, 2 mM L-glutamine, 0.1 mM 2-mercaptoethanol, 5.2 mM NaOH) with added 4 ng/mL FGF-2 (Global Stem) and penicillin/streptomycin (Nacalai Tesque, Inc.) along with SNL76/7 cells (DS Pharma Biomedical) treated with mitomycin-C. […]
The gene expression of insulin was confirmed by quantitative RT-PCR for the cells (n=2 for each of the betagenin addition group and the control group) obtained from 253G1 cells via the above steps (A2) to (D2). Specifically, total RNA was first extracted from the cells using a SV Total RNA Isolation System (Promega), and reverse transcription reactions were performed with BioScript™ transcriptase (Bioline), and then quantitative PCR analysis was performed using SYBR™ Green PCR Master Mix (Applied Biosystems). […]

betagenin: chemically synthesized peptide of SEQ ID NO: 1, fragment of human TM4SF20 from Position 170 to Position 229 (WRASSFHFDSEENKHRLIHFSVFLGLLLVGILEVLFGLSQIVIGFLGCLCGVSKRRSQIV; Peptide Sequence betagenin; listed as Homo sapiens)
increased: proportion of C-peptide positive cells or insulin positive cells ([1]; 200-9 cells) | proportion of C-peptide positive cells or insulin positive cells ([1]; 253G1 cells) | proportion of C-peptide positive cells or insulin positive cells ([1]; TIG3/KOSM cells) | amount of insulin expression (relative) [2]
